Patent US20040030106A1, “Novel compounds and process” (priority 2000, published 2004)
Values joined by “and” are separate entries in the source; they are usually repeats but may differ in a detail not shown here. Identical values can stand only once. Bridge positions count the residues as written; N and C are the ends. Ends that are not written are not given here.

Legend:
[1] = system: P14 peptides; assay: IgG anti-peptide ELISA after immunisation of mice with P14 peptide-BSA conjugates; format: in vivo; conditions: 25 μg conjugate IM with AS2 adjuvant on days 0, 14, 28, day 14 post III; for IgG anti-peptide responses (midpoint titre), individual mice: one value per mouse
Description: To evaluate the immunogenicity of the conjugates produced in Example 1, 10 mice per group were immunised intramuscularly (IM) on days 0, 14 and 28 with 25 μg of conjugate mixed with AS2 adjuvant (oil/water emulsion, 3D-MPL, QS21). The serologic response for the P14 peptides was analysed by ELISA on days 28 and 42 (14 post III).

[2] = system: P15 peptides; assay: Anti-peptide antibody response after immunisation of mice with cyclic P15-BSA conjugates; format: in vivo; conditions: 10 mice per group, 25 μg conjugate IM with AS2 adjuvant on days 0, 14, 28; 14 days post III
Description: (§1) The P15 peptide conjugates produced in Example 1 were also used to immunise 10 mice per group,intramuscularly (IM) on days 0, 14 and 28 with 25 μg of conjugate mixed with AS2 adjuvant (oil/water emulsion, 3D-MPL, QS21). Very homogenous responses were obtained with all cyclic P15 peptides.

[3] = system: IgE; assay: Anti-IgE antibody response after immunisation of mice with cyclic P15-BSA conjugates, by comparison with mAb 11; format: in vivo; conditions: mAb11 equivalents, 25 μg conjugate IM with AS2 adjuvant on days 0, 14, 28, 14 days post III
Description: as §1

[4] = system: human basophils; assay: Human basophil blocking assay: inhibition of Lol p I triggered histamine release; format: cell-based; conditions: human basophils from allergic donors, triggered with allergen (Lol p I)
Text: The degree of inhibition of histamine release can be calculated using the formula:
% inhibition=1−(histamine release from test sample treated cells*)×100(histamine release from antigen stimulated cells*)
Values corrected for spontaneous release.

[5] = system: human basophils
Description: Blood was collected by venepuncture from 4 allergic donors into tubes containing 0.1 volumes 2.7% EDTA, pH 7.0. It is then diluted 1/2 with an equal volume of HBH medium containing 0.1% human serum albumin (HBH/HSA). The resulting cell suspension was layered over 50% volume Ficoll-Paque and centrifuged at 400 g for 30 minutes at room temperature. The peripheral blood mononuclear cell (PBMC) layer at the interface is collected and the pellet is discarded. The cells are washed once in HBH/HSA, counted, and re-suspended in HBH/HSA at a cell density of 2.0×10^6 per ml. 100 μl cell suspension are added to wells of a V-bottom 96-well plate containing 100 μl diluted test sample or vaccine induced antibody. Each test sample is tested at a range of dilutions with 6 wells for each dilution. Well contents are mixed briefly using a plate shaker, before incubation at 37° C. for 30 minutes with shaking at 120 rpm.
For each serum dilution 3 wells are triggered by addition of 10 μl Lol p I extract (final dilution 1/10000) and 3 wells have 10 μl HBH/HSA added for assessment of anaphylactogenicity. Well contents are again mixed briefly using a plate shaker, before incubation at 37° C. for a further 30 minutes with shaking at 120 rpm. Incubations are terminated by centrifugation at 500 g for 5 min. Supernatants are removed for histamine assay using a commercially available histamine EIA measuring kit (Immunotech). Control wells containing cells without test sample are routinely included to determine spontaneous and triggered release. Wells containing cells ±0.05% Igepal detergent are also included to determine total cell histarnine.
Histamine release due to test samples=% histamine release from test sample treated cells−% spontaneous histamine release.

Substance: ACPEWPGSRDRCTLAG-NH2 (disulfide 2-12 (inferred)) [P14e]
- IgG anti-peptide responses (midpoint titre), Average [1]: 3200
- IgG anti-peptide responses (midpoint titre), geomean [1]: 3051
- IgG anti-peptide responses (midpoint titre), individual mice [1]: 3151 and 2345 and 3224 and 3051 and 2873 and 4647 and 1461 and 4227 and 3821

Substance: Ac-CLEDGQVMDCGSK-NH2 (disulfide 1-10 (inferred)) [P15b, 325 conjugated to BSA]
- anti-peptide (midpoint titre), average [2]: 11169
- anti-peptide (midpoint titre), geomean [2]: 8385
- anti-IgE (μg/ml or mAB11 equivalent), average [3]: 70 µg/mL
- anti-IgE (μg/ml or mAB11 equivalent), geomean [3]: 35 µg/mL

Substance: Ac-CLEDGQVMDVDLCGGSSGGK-NH2 (disulfide 1-13 (inferred)) [P15e]
- anti-peptide (midpoint titre), average [2]: 57432
- anti-peptide (midpoint titre), geomean [2]: 55207
- anti-IgE (μg/ml or mAB11 equivalent), average [3]: 129 µg/mL
- anti-IgE (μg/ml or mAB11 equivalent), geomean [3]: 113 µg/mL
- histamine release blocking activity of the induced antiserum [4]: inhibited histamine release
- anaphylactogenicity of the induced antiserum [5]: without the antiserum being anaphylactogenic

Substance: Ac-CLEDGQVMDVDLCGSK-NH2 (disulfide 1-13 (inferred)) [P15c]
- anti-peptide (midpoint titre), average [2]: 66452
- anti-peptide (midpoint titre), geomean [2]: 65685
- anti-IgE (μg/ml or mAB11 equivalent), average [3]: 200 µg/mL
- anti-IgE (μg/ml or mAB11 equivalent), geomean [3]: 189 µg/mL
- histamine release blocking activity of the induced antiserum [4]: inhibited histamine release
- anaphylactogenicity of the induced antiserum [5]: without the antiserum being anaphylactogenic

Substance: Ac-CLEDGQVMDVDLCPREAAEGDK-NH2 [P15d]
- anti-peptide (midpoint titre), average [2]: 35118
- anti-peptide (midpoint titre), geomean [2]: 32801
- anti-IgE (μg/ml or mAB11 equivalent), average [3]: 174 µg/mL
- anti-IgE (μg/ml or mAB11 equivalent), geomean [3]: 111 µg/mL
- histamine release blocking activity of the induced antiserum [4]: inhibited histamine release
- anaphylactogenicity of the induced antiserum [5]: without the antiserum being anaphylactogenic

Substance: Ac-CPEWPGSRDRCGSK-NH2 (disulfide 1-11 (inferred)) [P14f]
- IgG anti-peptide responses (midpoint titre), Average [1]: 77521
- IgG anti-peptide responses (midpoint titre), geomean [1]: 73541
- IgG anti-peptide responses (midpoint titre), individual mice [1]: 67086 and 101502 and 36031 and 74838 and 56496 and 51304 and 92885 and 92868 and 113041 and 89155

Substance: Ac-CWPGSRDRRCGSK-NH2 (disulfide 1-10 (inferred)) [P14I]
- IgG anti-peptide responses (midpoint titre), Average [1]: 48146
- IgG anti-peptide responses (midpoint titre), geomean [1]: 45336
- IgG anti-peptide responses (midpoint titre), individual mice [1]: 85882 and 28989 and 39268 and 39460 and 57276 and 50834 and 54664 and 62263 and 36621 and 26202
